Measured values from the supplement of paper PMC10307832.

Tests used:
Test in all cases: relative viability (nuclei count vs DMSO), 5 days (fraction); higher = more cells survive
[1] = system: NCI-H1944
Summary of the method: (§1)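 Lung cancer cell lines in 1536-well plates were dosed by pin tool the day after seeding, either with one drug alone or with a fixed anchor-drug dose plus five library-drug doses (not always all listed) in √10 steps. After 5 days, cells were fixed and their nuclei stained in one step (final 0.05% Triton X-100, 1% formaldehyde, 1 ug/ml Hoechst), then counted on 4× images. Relative viability is the nuclei count in treated wells divided by that in vehicle wells. Values are medians of duplicate plates.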

[2] = system: NCI-H1395
Summary of the method: as §1

[3] = system: NCI-H460
Summary of the method: as §1

[4] = system: UMC-11
Summary of the method: as §1

[5] = system: LOU-NH91
Summary of the method: as §1

[6] = system: RERF-LC-KJ
Summary of the method: as §1

[7] = system: NCI-H1755
Summary of the method: as §1

[8] = system: LU99A
Summary of the method: as §1

[9] = system: ABC-1
Summary of the method: as §1

[10] = system: NCI-H1793
Summary of the method: as §1

[11] = system: NCI-H1651
Summary of the method: as §1

[12] = system: NCI-H3122
Summary of the method: as §1

[13] = system: NCI-H2228
Summary of the method: as §1

[14] = system: CAL-12T
Summary of the method: as §1

[15] = system: NCI-H2087
Summary of the method: as §1

[16] = system: NCI-H2405
Summary of the method: as §1

[17] = system: NCI-H2170
Summary of the method: as §1

[18] = system: ChaGo-K-1
Summary of the method: as §1

[19] = system: HCC-78
Summary of the method: as §1

[20] = system: LC-2-ad
Summary of the method: as §1

[21] = system: HCC-366
Summary of the method: as §1

[22] = system: PC-3 [JPC-3]
Summary of the method: as §1

Q: For `CC(=O)O[C@@]12CO[C@@H]1C[C@H](O)[C@@]1(C)C(=O)[C@H](O)C3=C(C)[C@@H](OC(=O)[C@H](O)[C@@H](NC(=O)OC(C)(C)C)c4ccccc4)C[C@@](O)([C@@H](OC(=O)c4ccccc4)[C@H]21)C3(C)C` [Docetaxel] + N=C(N)NC(=N)NCCc1ccccc1 [Phenformin] (partner 250 µM), which relative viability ([1]; first compound 0.0002 µM) is on record?
A: 0.182

Q: What about the relative viability ([1]; first compound 0.000632 µM) of the same compound?
A: 0.188

Q: And the relative viability ([1]; first compound 0.002 µM)?
A: 0.163

Q: What about the relative viability ([1]; first compound 0.006325 µM) of the same compound?
A: 0.133

Q: And the relative viability ([1]; first compound 0.02 µM)?
A: 0.0967

Q: And the relative viability ([2]; first compound 0.0002 µM)?
A: 0.434

Q: And the relative viability ([2]; first compound 0.000632 µM)?
A: 0.45

Q: And the relative viability ([2]; first compound 0.002 µM)?
A: 0.442

Q: What about the relative viability ([2]; first compound 0.006325 µM) of the same compound?
A: 0.283

Q: What about the relative viability ([2]; first compound 0.02 µM) of the same compound?
A: 0.334

Q: And the relative viability ([3]; first compound 0.0002 µM)?
A: 0.481

Q: What about the relative viability ([3]; first compound 0.000632 µM) of the same compound?
A: 0.351

Q: What about the relative viability ([3]; first compound 0.002 µM) of the same compound?
A: 0.0311

Q: What about the relative viability ([3]; first compound 0.006325 µM) of the same compound?
A: 0.0221

Q: What about the relative viability ([3]; first compound 0.02 µM) of the same compound?
A: 0.0125

Q: And the relative viability ([4]; first compound 0.0002 µM)?
A: 0.309

Q: What about the relative viability ([4]; first compound 0.000632 µM) of the same compound?
A: 0.332

Q: And the relative viability ([4]; first compound 0.002 µM)?
A: 0.228

Q: And the relative viability ([4]; first compound 0.006325 µM)?
A: 0.205

Q: What about the relative viability ([4]; first compound 0.02 µM) of the same compound?
A: 0.199

Q: And the relative viability ([5]; first compound 0.0002 µM)?
A: 0.661

Q: What about the relative viability ([5]; first compound 0.000632 µM) of the same compound?
A: 0.625

Q: What about the relative viability ([5]; first compound 0.002 µM) of the same compound?
A: 0.41

Q: What about the relative viability ([5]; first compound 0.006325 µM) of the same compound?
A: 0.317

Q: What about the relative viability ([5]; first compound 0.02 µM) of the same compound?
A: 0.269

Q: And the relative viability ([6]; first compound 0.0002 µM)?
A: 0.454

Q: And the relative viability ([6]; first compound 0.000632 µM)?
A: 0.405

Q: What about the relative viability ([6]; first compound 0.002 µM) of the same compound?
A: 0.238

Q: What about the relative viability ([6]; first compound 0.006325 µM) of the same compound?
A: 0.209

Q: And the relative viability ([6]; first compound 0.02 µM)?
A: 0.195

Q: What about the relative viability ([7]; first compound 0.0002 µM) of the same compound?
A: 0.621

Q: What about the relative viability ([7]; first compound 0.000632 µM) of the same compound?
A: 0.577

Q: And the relative viability ([7]; first compound 0.002 µM)?
A: 0.411

Q: And the relative viability ([7]; first compound 0.006325 µM)?
A: 0.434

Q: And the relative viability ([7]; first compound 0.02 µM)?
A: 0.36

Q: What about the relative viability ([8]; first compound 0.0002 µM) of the same compound?
A: 0.811

Q: And the relative viability ([8]; first compound 0.000632 µM)?
A: 0.656

Q: What about the relative viability ([8]; first compound 0.002 µM) of the same compound?
A: 0.364

Q: What about the relative viability ([8]; first compound 0.006325 µM) of the same compound?
A: 0.335

Q: What about the relative viability ([8]; first compound 0.02 µM) of the same compound?
A: 0.242

Q: What about the relative viability ([9]; first compound 0.0002 µM) of the same compound?
A: 0.27

Q: What about the relative viability ([9]; first compound 0.000632 µM) of the same compound?
A: 0.226

Q: And the relative viability ([9]; first compound 0.002 µM)?
A: 0.232

Q: And the relative viability ([9]; first compound 0.006325 µM)?
A: 0.223

Q: What about the relative viability ([9]; first compound 0.02 µM) of the same compound?
A: 0.212

Q: What about the relative viability ([10]; first compound 0.0002 µM) of the same compound?
A: 0.302

Q: What about the relative viability ([10]; first compound 0.000632 µM) of the same compound?
A: 0.319

Q: And the relative viability ([10]; first compound 0.002 µM)?
A: 0.322

Q: What about the relative viability ([10]; first compound 0.006325 µM) of the same compound?
A: 0.245

Q: And the relative viability ([10]; first compound 0.02 µM)?
A: 0.173

Q: And the relative viability ([11]; first compound 0.0002 µM)?
A: 0.266

Q: And the relative viability ([11]; first compound 0.000632 µM)?
A: 0.342

Q: And the relative viability ([11]; first compound 0.002 µM)?
A: 0.194

Q: And the relative viability ([11]; first compound 0.006325 µM)?
A: 0.087

Q: What about the relative viability ([11]; first compound 0.02 µM) of the same compound?
A: 0.0897

Q: What about the relative viability ([12]; first compound 0.0002 µM) of the same compound?
A: 0.368

Q: What about the relative viability ([12]; first compound 0.000632 µM) of the same compound?
A: 0.345

Q: And the relative viability ([12]; first compound 0.002 µM)?
A: 0.261

Q: What about the relative viability ([12]; first compound 0.006325 µM) of the same compound?
A: 0.152

Q: What about the relative viability ([12]; first compound 0.02 µM) of the same compound?
A: 0.139

Q: And the relative viability ([13]; first compound 0.0002 µM)?
A: 0.302

Q: What about the relative viability ([13]; first compound 0.000632 µM) of the same compound?
A: 0.173

Q: And the relative viability ([13]; first compound 0.002 µM)?
A: 0.147

Q: And the relative viability ([13]; first compound 0.006325 µM)?
A: 0.158

Q: And the relative viability ([13]; first compound 0.02 µM)?
A: 0.123

Q: What about the relative viability ([14]; first compound 0.0002 µM) of the same compound?
A: 0.522

Q: And the relative viability ([14]; first compound 0.000632 µM)?
A: 0.305

Q: What about the relative viability ([14]; first compound 0.002 µM) of the same compound?
A: 0.185

Q: What about the relative viability ([14]; first compound 0.006325 µM) of the same compound?
A: 0.135

Q: And the relative viability ([14]; first compound 0.02 µM)?
A: 0.118

Q: What about the relative viability ([15]; first compound 0.0002 µM) of the same compound?
A: 0.44

Q: And the relative viability ([15]; first compound 0.000632 µM)?
A: 0.38

Q: And the relative viability ([15]; first compound 0.002 µM)?
A: 0.152

Q: And the relative viability ([15]; first compound 0.006325 µM)?
A: 0.159

Q: What about the relative viability ([15]; first compound 0.02 µM) of the same compound?
A: 0.0907

Q: And the relative viability ([16]; first compound 0.0002 µM)?
A: 0.393

Q: And the relative viability ([16]; first compound 0.000632 µM)?
A: 0.419

Q: What about the relative viability ([16]; first compound 0.002 µM) of the same compound?
A: 0.315

Q: And the relative viability ([16]; first compound 0.006325 µM)?
A: 0.297

Q: And the relative viability ([16]; first compound 0.02 µM)?
A: 0.26

Q: What about the relative viability ([17]; first compound 0.0002 µM) of the same compound?
A: 0.405

Q: What about the relative viability ([17]; first compound 0.000632 µM) of the same compound?
A: 0.428

Q: What about the relative viability ([17]; first compound 0.002 µM) of the same compound?
A: 0.267

Q: What about the relative viability ([17]; first compound 0.006325 µM) of the same compound?
A: 0.217

Q: And the relative viability ([17]; first compound 0.02 µM)?
A: 0.174

Q: What about the relative viability ([18]; first compound 0.0002 µM) of the same compound?
A: 0.431

Q: What about the relative viability ([18]; first compound 0.000632 µM) of the same compound?
A: 0.408

Q: And the relative viability ([18]; first compound 0.002 µM)?
A: 0.283

Q: And the relative viability ([18]; first compound 0.006325 µM)?
A: 0.192

Q: What about the relative viability ([18]; first compound 0.02 µM) of the same compound?
A: 0.149

Q: And the relative viability ([19]; first compound 0.0002 µM)?
A: 0.582

Q: What about the relative viability ([19]; first compound 0.000632 µM) of the same compound?
A: 0.615

Q: What about the relative viability ([19]; first compound 0.002 µM) of the same compound?
A: 0.409

Q: And the relative viability ([19]; first compound 0.006325 µM)?
A: 0.371

Q: What about the relative viability ([19]; first compound 0.02 µM) of the same compound?
A: 0.354

Q: What about the relative viability ([20]; first compound 0.0002 µM) of the same compound?
A: 0.497

Q: What about the relative viability ([20]; first compound 0.000632 µM) of the same compound?
A: 0.494

Q: And the relative viability ([20]; first compound 0.002 µM)?
A: 0.327

Q: What about the relative viability ([20]; first compound 0.006325 µM) of the same compound?
A: 0.243

Q: And the relative viability ([21]; first compound 0.0002 µM)?
A: 0.599

Q: What about the relative viability ([21]; first compound 0.000632 µM) of the same compound?
A: 0.253

Q: What about the relative viability ([21]; first compound 0.002 µM) of the same compound?
A: 0.147

Q: And the relative viability ([21]; first compound 0.006325 µM)?
A: 0.0428

Q: And the relative viability ([21]; first compound 0.02 µM)?
A: 0.0275

Q: And the relative viability ([22]; first compound 0.0002 µM)?
A: 0.484

Q: What about the relative viability ([22]; first compound 0.000632 µM) of the same compound?
A: 0.48

Q: And the relative viability ([22]; first compound 0.002 µM)?
A: 0.371

Q: What about the relative viability ([22]; first compound 0.006325 µM) of the same compound?
A: 0.246

Q: What about the relative viability ([22]; first compound 0.02 µM) of the same compound?
A: 0.138
